Test results published in publication PMC4213943 (ChemMedChem, 2014).

Target: G-actin (Prodan-G-actin; actin) (Oryctolagus cuniculus, UniProt P68135)
Experiment: X-ray crystal structure
Assay type: binding
Settings: nucleotide site

Row | Structure (SMILES) | X-ray crystal structure (actin co-crystallised with SF-01 or GC-04, Ca2+) | X-ray crystal structure (actin co-crystallised with kabiramide C, Ca2+)
1 | Nc1ncnc2c1ncn2[C@@H]1O[C@H](COP(=O)(O)OP(=O)(O)O)[C@@H](O)[C@H]1O [ADP] | complexes with GC-04 and SF-01 is occupied by ADP | 
2 | Nc1ncnc2c1ncn2[C@@H]1O[C@H](COP(=O)(O)OP(=O)(O)OP(=O)(O)O)[C@@H](O)[C@H]1O [ATP] |  | ATP is bound to the actin in the KabC complex
